# Assay results taken from ChEMBL document CHEMBL3885881, “DrugMatrix”.
# Species: Rattus norvegicus
# Assay: DrugMatrix - Regimen: Daily Repeat
# Assay type: toxicity, organism-based, Sprague-Dawley
# Design: regimen Daily Repeat, gender Male, age 6-8 weeks
# Settings: in vivo, po, route oral GAVAGE, vehicle 100 % WATER; for ABSOLUTE BASOPHIL / ABSOLUTE EOSINOPHIL / ABSOLUTE LYMPHOCYTE / ABSOLUTE MONOCYTE / ABSOLUTE SEGMENTED NEUTROPHIL / BASOPHIL / EOSINOPHIL / ERYTHROCYTE COUNT / HEMATOCRIT / HEMOGLOBIN / LEUKOCYTE COUNT / LYMPHOCYTE / MEAN CORPUSCULAR HEMOGLOBIN / MEAN CORPUSCULAR HEMOGLOBIN CONCENTRATION / MEAN CORPUSCULAR VOLUME / MONOCYTE / NEUTROPHIL / NUCLEATED RED BLOOD CELLS / PLATELET COUNT: tissue Blood; for ALANINE AMINOTRANSFERASE / ALBUMIN / ALKALINE PHOSPHATASE / ASPARTATE AMINOTRANSFERASE / BLOOD UREA NITROGEN / CARBON DIOXIDE / CHLORIDE / CHOLESTEROL / CREATINE PHOSPHOKINASE / CREATININE / GLUCOSE / LACTATE DEHYDROGENASE / LIPASE / PHOSPHORUS / POTASSIUM / SODIUM / TOTAL BILIRUBIN / TOTAL PROTEIN / URIC ACID: tissue Plasma
# [1] = 3 mg/kg, 120 h, dose level Low, time 5 day
# [2] = 47 mg/kg, 72 h, dose level High, time 3 day
# [3] = 47 mg/kg, 120 h, dose level High, time 5 day
smiles,measurement,setting,value
CN(C)CC[C@@H](c1ccc(Cl)cc1)c1ccccn1 [DEXCHLORPHENIRAMINE],ABSOLUTE BASOPHIL,[1],0 CELLS/uL
same,ABSOLUTE EOSINOPHIL,[1],0 CELLS/uL
same,ABSOLUTE LYMPHOCYTE,[1],15600.33 CELLS/uL
same,ABSOLUTE MONOCYTE,[1],181.67 CELLS/uL
same,ABSOLUTE SEGMENTED NEUTROPHIL,[1],884.67 CELLS/uL
same,BASOPHIL,[1],0%
same,EOSINOPHIL,[1],0%
same,ERYTHROCYTE COUNT,[1],5.61 x10E6/uL
same,HEMATOCRIT,[1],35.43%
same,HEMOGLOBIN,[1],14.3 G/DL
same,LEUKOCYTE COUNT,[1],16.67 x10E3/uL
same,LYMPHOCYTE,[1],93.67%
same,MEAN CORPUSCULAR HEMOGLOBIN,[1],25.5 pg
same,MEAN CORPUSCULAR HEMOGLOBIN CONCENTRATION,[1],40.33 G/DL
same,MEAN CORPUSCULAR VOLUME,[1],63.17 fL
same,MONOCYTE,[1],1%
same,NEUTROPHIL,[1],5.33%
same,NUCLEATED RED BLOOD CELLS,[1],0.33 /100WBC
same,PLATELET COUNT,[1],1254.33 x10E3/uL
same,ALANINE AMINOTRANSFERASE,[1],55.33 u/L
same,ALBUMIN,[1],4.17 G/DL
same,ALKALINE PHOSPHATASE,[1],407 u/L
same,ASPARTATE AMINOTRANSFERASE,[1],86.33 u/L
same,BLOOD UREA NITROGEN,[1],15 mg/dL
same,CARBON DIOXIDE,[1],32 mmol/L
same,CHLORIDE,[1],102 MEQ/L
same,CHOLESTEROL,[1],63.33 mg/dL
same,CREATINE PHOSPHOKINASE,[1],451.67 u/L
same,CREATININE,[1],0.18 mg/dL
same,GLUCOSE,[1],121.33 mg/dL
same,LACTATE DEHYDROGENASE,[1],251 u/L
same,LIPASE,[1],10.33 u/L
same,PHOSPHORUS,[1],12.1 mg/dL
same,POTASSIUM,[1],6.1 MEQ/L
same,SODIUM,[1],144.9 MEQ/L
same,TOTAL BILIRUBIN,[1],0.23 mg/dL
same,TOTAL PROTEIN,[1],6.07 G/DL
same,URIC ACID,[1],1.37 mg/dL
same,ABSOLUTE BASOPHIL,[2],0 CELLS/uL
same,ABSOLUTE EOSINOPHIL,[2],62.67 CELLS/uL
same,ABSOLUTE LYMPHOCYTE,[2],12240 CELLS/uL
same,ABSOLUTE MONOCYTE,[2],133 CELLS/uL
same,ABSOLUTE SEGMENTED NEUTROPHIL,[2],864.33 CELLS/uL
same,BASOPHIL,[2],0%
same,EOSINOPHIL,[2],0.67%
same,ERYTHROCYTE COUNT,[2],5.93 x10E6/uL
same,HEMATOCRIT,[2],38.13%
same,HEMOGLOBIN,[2],14.77 G/DL
same,LEUKOCYTE COUNT,[2],13.3 x10E3/uL
same,LYMPHOCYTE,[2],91.33%
same,MEAN CORPUSCULAR HEMOGLOBIN,[2],24.9 pg
same,MEAN CORPUSCULAR HEMOGLOBIN CONCENTRATION,[2],38.73 G/DL
same,MEAN CORPUSCULAR VOLUME,[2],64.3 fL
same,MONOCYTE,[2],1%
same,NEUTROPHIL,[2],7%
same,NUCLEATED RED BLOOD CELLS,[2],0 /100WBC
same,PLATELET COUNT,[2],1535.33 x10E3/uL
same,ALANINE AMINOTRANSFERASE,[2],44.33 u/L
same,ALBUMIN,[2],4.03 G/DL
same,ALKALINE PHOSPHATASE,[2],352 u/L
same,ASPARTATE AMINOTRANSFERASE,[2],75 u/L
same,BLOOD UREA NITROGEN,[2],14.67 mg/dL
same,CARBON DIOXIDE,[2],33.67 mmol/L
same,CHLORIDE,[2],102 MEQ/L
same,CHOLESTEROL,[2],65 mg/dL
same,CREATINE PHOSPHOKINASE,[2],246.67 u/L
same,CREATININE,[2],0.17 mg/dL
same,GLUCOSE,[2],153.67 mg/dL
same,LACTATE DEHYDROGENASE,[2],134 u/L
same,LIPASE,[2],10.67 u/L
same,PHOSPHORUS,[2],12.47 mg/dL
same,POTASSIUM,[2],6.39 MEQ/L
same,SODIUM,[2],145.23 MEQ/L
same,TOTAL BILIRUBIN,[2],0.17 mg/dL
same,TOTAL PROTEIN,[2],5.97 G/DL
same,URIC ACID,[2],1.93 mg/dL
same,ABSOLUTE BASOPHIL,[3],0 CELLS/uL
same,ABSOLUTE EOSINOPHIL,[3],0 CELLS/uL
same,ABSOLUTE LYMPHOCYTE,[3],14891.67 CELLS/uL
same,ABSOLUTE MONOCYTE,[3],0 CELLS/uL
same,ABSOLUTE SEGMENTED NEUTROPHIL,[3],875 CELLS/uL
same,BASOPHIL,[3],0%
same,EOSINOPHIL,[3],0%
same,ERYTHROCYTE COUNT,[3],6.11 x10E6/uL
same,HEMATOCRIT,[3],38.9%
same,HEMOGLOBIN,[3],14.93 G/DL
same,LEUKOCYTE COUNT,[3],15.77 x10E3/uL
same,LYMPHOCYTE,[3],94.33%
same,MEAN CORPUSCULAR HEMOGLOBIN,[3],24.47 pg
same,MEAN CORPUSCULAR HEMOGLOBIN CONCENTRATION,[3],38.37 G/DL
same,MEAN CORPUSCULAR VOLUME,[3],63.73 fL
same,MONOCYTE,[3],0%
same,NEUTROPHIL,[3],5.67%
same,NUCLEATED RED BLOOD CELLS,[3],0 /100WBC
same,PLATELET COUNT,[3],1215 x10E3/uL
same,ALANINE AMINOTRANSFERASE,[3],35.67 u/L
same,ALBUMIN,[3],4.17 G/DL
same,ALKALINE PHOSPHATASE,[3],323 u/L
same,ASPARTATE AMINOTRANSFERASE,[3],76.67 u/L
same,BLOOD UREA NITROGEN,[3],14.67 mg/dL
same,CARBON DIOXIDE,[3],30.67 mmol/L
same,CHLORIDE,[3],101.33 MEQ/L
same,CHOLESTEROL,[3],61.67 mg/dL
same,CREATINE PHOSPHOKINASE,[3],322 u/L
same,CREATININE,[3],0.13 mg/dL
same,GLUCOSE,[3],169.67 mg/dL
same,LACTATE DEHYDROGENASE,[3],202.67 u/L
same,LIPASE,[3],11 u/L
same,PHOSPHORUS,[3],12.57 mg/dL
same,POTASSIUM,[3],5.79 MEQ/L
same,SODIUM,[3],144.7 MEQ/L
same,TOTAL BILIRUBIN,[3],0.2 mg/dL
same,TOTAL PROTEIN,[3],6.33 G/DL
same,URIC ACID,[3],1.57 mg/dL
